# Measured values as given in US7629323B2, “Manipulation of neuronal ion channels” (Northwestern University, priority 2003, dated 2009).
# Tested on: Na+ currents in FS neurons
# Assay: Na+ currents in FS neurons
# Assay type: cell-based, rat
# Conditions: n=3
# Source text: Tissue preparation. […] Hippocampal interneurons and GP were identified as CaMKII negative, GAD67 and parvalbumin positive neurons by single cell RT-PCR detection of corresponding mRNAs following physiology experiments (see below).
# Electrophysiology. Whole-cell recordings used standard techniques^27,28. The internal solution consisted of (in mM): 30-90 K2SO4, 0-60 N-methyl-D-glucamine, 2 MgCl2, 40 HEPES, 5 EGTA, 12 phosphocreatine, 2 Na2ATP, 0.2 Na3GTP, and 0.1 leupeptin, pH 7.2 with H2SO4 (osmolarity 260-270 mOsm/l). The external solution consisted of (in mM): 140 Na-isethionate, 2 KCl, 4 MgCl2, 10 HEPES, 12 glucose and 0.001 TTX, pH 7.35 with NaOH (osmolarity 295-305 mOsm/l). The internal solution for current clamp recordings consisted of (in mM) 110 potassium methylsulphate, 2 MgCl2, 40 HEPES, 5 EGTA, 12 phosphocreatine, 2 Na2ATP, 0.2 Na3GTP, and 0.1 leupeptin, pH 7.2 with H2SO4 (osmolarity 260-270 mOsm/l). In the case of current clamp recordings, TTX was omitted from external solution. […] Recordings were obtained with Axon Instruments 200 patch-clamp amplifier and controlled and monitored with a PC running pClamp software (version 7.0) (Axon Instruments Inc., Union City, Calif.). […] After seal rupture, series resistance (2-10 MΩ) was compensated (75-90%) and periodically monitored. […]
substance,measurement,value
BDS-I (AAPCFCSGKPGRGDLWILRGTCPGGYGYTSNCYKWPNICCYPH),inactivation kinetics of Na+ currents in FS neurons,didn't significantly alter
